12 molecules from patent publication US7169773B2, “Compounds” (SmithKline Beecham Corporation, priority 2004, dated 2007) can be followed below.

For one data set, the target named is human MC4R (Homo sapiens, UniProt P32245). Nature of the data set: Reporter Gene Assay (CHO-6×CRE-luc+ reporter cell lines, luciferase). The format is cell-based. The note with it: for Emax: 4 h, read-out: % of MSH; for Emax / % of MSH: percentage of the fold stimulation in the NDP-αMSH control (1×10^−7 M NDP-αMSH), CHO-6×CRE-luc+ cells, human MC4R; for EC50: CHO-6×CRE-luc+ reporter cells expressing human MC4R, 4 h at 37° C., luciferase activity. How it is done:
Reporter Gene Assay CHO-6×CRE-luc^+ reporter cell lines expressing human MC1R, MC3R, MC4R, and MC5R (GenBank accession numbers X65634, LO6155, S77415 and U08353) and the CHO host reporter gene cell line were propagated in complete medium in T225 flasks. Forty-eight hours prior to assay, cells were harvested with 2 ml of 0.05% trypsin, washed with complete medium and plated at a concentration of 4000 cells/well in complete medium. Sixteen hours prior to the assay, the medium was removed from the cells and replaced with 90 μl/well of serum-free DMEM/F12. At the time of the assay the compounds were added in a 10 μl volume and plates were incubated for 4 h at 37° C. in a cell culture incubator. The medium was aspirated followed by the addition of 50 μl of a 1:1 mixture of LucLiteTM and dPBS containing 1 mM CaCl2 and 1 mM MgCl2. The plates were then sealed and subjected to dark adaptation at room temperature for 10 min before luciferase activity was quantitated on a TopCountTM microplate scintillation counter (Packard) using 3 s/well count time. The NDP-αMSH and […]-5 concentration-response curve data were expressed as a percentage of the fold stimulation in the NDP-αMSH control for each receptor subtype. The control value is the average of duplicate wells treated with 1×10^-7 M NDP-αMSH.

Structures are written as SMILES.

Chain of human MC4R (P32245 whole entry): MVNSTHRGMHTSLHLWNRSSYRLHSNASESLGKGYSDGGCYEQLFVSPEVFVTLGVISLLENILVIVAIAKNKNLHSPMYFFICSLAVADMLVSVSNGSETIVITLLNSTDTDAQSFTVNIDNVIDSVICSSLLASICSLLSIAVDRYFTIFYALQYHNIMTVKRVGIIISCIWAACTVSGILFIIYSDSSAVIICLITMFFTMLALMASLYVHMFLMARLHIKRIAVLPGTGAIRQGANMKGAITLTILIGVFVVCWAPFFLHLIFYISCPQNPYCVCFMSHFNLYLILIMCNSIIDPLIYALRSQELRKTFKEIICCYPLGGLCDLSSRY

Molecule `COc1ccc2c(c1)CCCCN2C(=O)CN1C(=O)C(Cc2n[nH]c3ccccc23)C(=O)N(c2ccccc2)c2ccccc21` (centres unmarked) [Example 2, 3-(1H-indazol-3-ylmethyl)-1-[2-(7-methoxy-2,3,4,5-tetrahydro-1H-1-benzazepin-1-yl)-2-oxoethyl]-5-phenyl-1H-1,5-benzodiazepine-2,4(3H,5H)-dione] showed a melting point of 215 to 230 °C. Also, at human MC4R, the Emax is 42% and the response was half-maximal at 288 nM (EC50).

Regarding `COc1ccc(N(C(=O)CN2C(=O)C(Cc3n[nH]c4ccccc34)(OC)C(=O)N(c3cccnc3)c3ccccc32)C(C)C)cc1` (single isomer, unassigned) [Example 9, 2-[3-(1H-indazol-3-ylmethyl)-3-methoxy-2,4-dioxo-5-pyridin-3-yl-2,3,4,5-tetrahydro-1H-1,5-benzodiazepin-1-yl]-N-isopropyl-N-(4-methoxyphenyl)acetamide], at human MC4R, the EC50 is 158 nM and the “% of MSH” value was determined as 68%.

For the molecule `COc1cccc2c1CCCCN2C(=O)CN1C(=O)[C@@H](Cc2n[nH]c3c2CCCC3)C(=O)N(c2ccccc2)c2ccccc21` [Example 7, (3R)-1-[2-(6-methoxy-2,3,4,5-tetrahydro-1H-1-benzazepin-1-yl)-2-oxoethyl]-5-phenyl-3-(4,5,6,7-tetrahydro-1H-indazol-3-ylmethyl)-1H-1,5-benzodiazepine-2,4(3H,5H)-dione], on human MC4R, the Emax is 41% and a half-maximal effect (EC50) was put at 158 nM.

Consider `COC1(Cc2n[nH]c3ccccc23)C(=O)N(CC(=O)N2CCCCc3ccccc32)c2ccccc2N(c2ccccc2)C1=O` (centres unmarked) [Example 11, 3-(1H-indazol-3-ylmethyl)-3-methoxy-1-[2-oxo-2-(2,3,4,5-tetrahydro-1H-1-benzazepin-1-yl)ethyl]-5-phenyl-1H-1,5-benzodiazepine-2,4(3H,5H)-dione], for which, at human MC4R, the Emax is 59% and the response was half-maximal at 112 nM (EC50).

As for `Cc1cc(C)c2c(c1)N(C(=O)CN1C(=O)C(Cc3n[nH]c4ccccc34)C(=O)N(c3ccccc3)c3ccccc31)CCCC2` (racemic) [Example 3, 1-[2-(6,8-dimethyl-2,3,4,5-tetrahydro-1H-1-benzazepin-1-yl)-2-oxoethyl]-3(1H-indazol-3-ylmethyl)-5-phenyl-1H-1,5-benzodiazepine-2,4(3H,5H)-dione], at human MC4R, the Emax was 47% and a half-maximal effect (EC50) was put at 60.3 nM.

Turning to `COc1cccc2c1CCCCN2C(=O)CN1C(=O)[C@@H](Cc2n[nH]c3ccccc23)C(=O)N(c2ccccc2)c2ccccc21` [Example 5, (3R)-3-(1H-indazol-3-ylmethyl)-1-[2-(6-methoxy-2,3,4,5-tetrahydro-1H-1-benzazepin-1-yl)-2-oxoethyl]-5-phenyl-1H-1,5-benzodiazepine-2,4(3H,5H)-dione], the melting point was in the range of 186 to 214 °C. In addition, at human MC4R, the Emax is 44% and the concentration for a half-maximal effect (EC50) is 282 nM.

With `O=C(CN1C(=O)C(Cc2n[nH]c3cc(F)ccc23)C(=O)N(c2ccccc2)c2ccccc21)N1CCCCc2ccccc21` (centres unmarked) [Example 12, 3-[(6-fluoro-1H-indazol-3-yl)methyl]-1-[2-oxo-2-(2,3,4,5-tetrahydro-1H-1-benzazepin-1-yl)ethyl]-5-phenyl-1H-1,5-benzodiazepine-2,4(3H,5H)-dione], on human MC4R, the Emax amounted to 52% and it took 174 nM to reach a half-maximal effect (EC50).

On to `COc1ccc(N(C(=O)CN2C(=O)C(Cc3n[nH]c4ccccc34)(OC)C(=O)N(c3cccnc3)c3ccccc32)C(C)C)cc1` (single isomer, unassigned) [Example 10, 2-[3-(1H-indazol-3-ylmethyl)-3-methoxy-2,4-dioxo-5-pyridin-3-yl-2,3,4,5-tetrahydro-1H-1,5-benzodiazepin-1-yl]-N-isopropyl-N-(4-methoxyphenyl)acetamide], for which, at human MC4R, the EC50 was 200 nM and the “% of MSH” value worked out at 29%.

For the molecule `COc1ccc(N(C(=O)CN2C(=O)C(Cc3n[nH]c4ccccc34)(OC)C(=O)N(c3cccnc3)c3ccccc32)C(C)C)cc1` (racemic) [Example 8, 2-[3-(1H-indazol-3-ylmethyl)-3-methoxy-2,4-dioxo-5-pyridin-3-yl-2,3,4,5-tetrahydro-1H-1,5-benzodiazepin-1-yl]-N-isopropyl-N-(4-methoxyphenyl)acetamide], at human MC4R, the Emax is 74% and the midpoint of the response, the EC50, lay at 251 nM.

`COc1cccc2c1CCCCN2C(=O)CN1C(=O)C(Cc2n[nH]c3ccccc23)C(=O)N(c2ccccc2)c2ccccc21` (racemic) [Example 4, 3-(1H-indazol-3-ylmethyl)-1-[2-(6-methoxy-2,3,4,5-tetrahydro-1H-1-benzazepin-1-yl)-2-oxoethyl]-5-phenyl-1H-1,5-benzodiazepine-2,4(3H,5H)-dione]: at human MC4R, the Emax worked out at 45% and the half-maximal effective concentration (EC50) was 178 nM.

Consider `Cc1cc(C)c2c(c1)N(C(=O)CN1C(=O)[C@@H](Cc3n[nH]c4c3CCCC4)C(=O)N(c3ccccc3)c3ccccc31)CCCC2` [Example 6, (3R)-1-[2-(6,8-dimethyl-2,3,4,5-tetrahydro-1H-1-benzazepin-1-yl)-2-oxoethyl]-5-phenyl-3-(4,5,6,7-tetrahydro-1H-indazol-3-ylmethyl)-1H-1,5-benzodiazepine-2,4(3H,5H)-dione], for which, on human MC4R, the Emax was determined as 35% and a half-maximal response (EC50) required 257 nM.

Take `O=C(CN1C(=O)C(Cc2n[nH]c3ccccc23)C(=O)N(c2ccccc2)c2ccccc21)N1CCCCc2ccccc21` (racemic) [Example 1, 3-(1H-indazol-3-ylmethyl)-1-[2-oxo-2-(2,3,4,5-tetrahydro-1H-1-benzazepin-1-yl)ethyl]-5-phenyl-1H-1,5-benzodiazepine-2,4(3H,5H)-dione]: at human MC4R, the Emax amounted to 60% and the midpoint of the response, the EC50, lay at 309 nM.

The term melting point denotes the temperature of the solid-liquid transition. By EC50 is commonly meant the concentration that produces a half-maximal response.
